# Reference: the supplement of paper PMC10307832
# Experiments:
# Assay in all cases: relative viability (nuclei count vs DMSO), 5 days (fraction); higher = more cells survive
# [1] = compound: CC1=CC(=CC=C1)NC2=NC(=CS2)C3=CC=NC=C3 + Cc1nc(NC(=O)N2CCC[C@H]2C(N)=O)sc1-c1ccnc(C(C)(C)C(F)(F)F)c1 [Alpelisib] (partner 2 µM)
# Outline: (§1)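 Nuclei were stained with Hoechst during a one-step fixation (final 0.05% Triton X-100, 1% formaldehyde, 1 ug/ml Hoechst) carried out 5 days after dosing, then counted on 4× images. The cells, lung cancer lines in 1536-well plates, had been dosed by pin tool the day after seeding with one drug alone or a fixed anchor-drug dose plus five library-drug doses (not always all listed) in √10 steps. Relative viability is the nuclei count in treated wells divided by that in vehicle wells, and each value is the median of duplicate plates.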
# [2] = compound: CC1=CC(=CC=C1)NC2=NC(=CS2)C3=CC=NC=C3 + CC(=O)Nc1cccc(-n2c(=O)n(C3CC3)c(=O)c3c(Nc4ccc(I)cc4F)n(C)c(=O)c(C)c32)c1 [Trametinib] (partner 0.02 µM)
# Outline: as §1
# Masitinib + Vorinostat = compound: Cc1ccc(NC(=O)c2ccc(CN3CCN(C)CC3)cc2)cc1Nc1nc(-c2cccnc2)cs1 [Masitinib] + O=C(CCCCCCC(=O)Nc1ccccc1)NO [Vorinostat] (partner 1 µM)
# Outline: as §1
# [3] = compound: CC1=CC(=CC=C1)NC2=NC(=CS2)C3=CC=NC=C3 + N=C(N)NC(=N)NCCc1ccccc1 [Phenformin] (partner 250 µM)
# Outline: as §1
Cell Line,relative viability ([1]; first compound 0.253 µM),relative viability ([1]; first compound 0.8 µM),relative viability ([1]; first compound 2.53 µM),relative viability ([1]; first compound 8 µM),relative viability ([2]; first compound 0.08 µM),relative viability ([2]; first compound 0.253 µM),relative viability ([2]; first compound 0.8 µM),relative viability ([2]; first compound 2.53 µM),relative viability ([2]; first compound 8 µM),relative viability (Masitinib + Vorinostat; first compound 0.01 µM),relative viability (Masitinib + Vorinostat; first compound 0.03162 µM),relative viability (Masitinib + Vorinostat; first compound 0.1 µM),relative viability (Masitinib + Vorinostat; first compound 0.3162 µM),relative viability (Masitinib + Vorinostat; first compound 1 µM),relative viability ([3]; first compound 0.08 µM),relative viability ([3]; first compound 0.253 µM),relative viability ([3]; first compound 0.8 µM),relative viability ([3]; first compound 2.53 µM),relative viability ([3]; first compound 8 µM),relative viability ([1]; first compound 0.08 µM)
LU99A,0.49,0.433,0.428,0.443,0.521,0.575,0.509,0.525,0.477,0.455,0.433,0.492,0.534,0.467,0.762,0.765,0.863,0.884,0.821,
LXF-289,1.03,1.02,1.03,0.91,0.639,0.674,0.648,0.739,0.606,0.646,0.818,0.65,0.854,0.743,0.494,0.522,0.514,0.487,0.487,0.993
NCI-H23,0.677,0.727,0.634,0.738,0.371,0.199,0.424,0.388,0.419,0.564,0.462,0.547,0.454,0.501,0.787,0.711,0.717,0.82,0.779,0.567
NCI-H522,,,,,0.79,0.66,0.832,0.789,0.878,0.822,0.904,1.07,1.06,0.821,0.682,0.687,0.654,0.613,0.655,
NCI-H1299,1.01,1.05,1.05,0.988,,,,,,,,,,,,,,,,1.04
NCI-H1563,0.94,0.968,0.98,0.828,,,,,,,,,,,0.725,0.634,0.691,0.733,0.657,0.881
NCI-H1623,,,,,,,,,,,,,,,0.577,0.585,0.564,0.513,0.565,
NCI-H1648,,,,,0.353,0.569,0.444,0.471,0.588,0.471,0.401,0.454,,0.555,,,,,,
NCI-H1650,,,,,0.52,0.319,0.555,0.429,0.333,0.492,0.402,0.549,0.437,0.512,0.419,0.328,0.527,0.344,0.245,
NCI-H1703,0.294,0.408,0.354,0.323,,,,,,,,,,,,,,,,0.391
NCI-H1792,0.523,0.567,0.443,0.589,0.401,0.397,0.379,0.317,0.429,,,,,,0.207,0.36,0.373,0.309,0.252,0.628
NCI-H2342,,,,,0.686,0.729,0.695,0.74,0.732,0.789,0.671,0.829,0.856,0.83,0.483,0.582,0.603,0.518,0.568,
SW 900,,,,,0.518,0.539,0.913,0.508,0.667,0.48,0.502,0.375,0.259,0.505,0.555,0.446,0.673,0.461,0.532,
